Data from patent US7727977B2, “Kynurenine 3-hydroxylase inhibitors for the treatment of diabetes” (Merck Patent Gesellschaft mit beschrankter Haftung, priority 2003, dated 2010).
Marks after values point to notes of the source that are not given here.

Columns and labels:
kynurenine 3-hydroxylase = target: T1, kynurenine 3-hydroxylase (Rattus norvegicus, UniProt O88867); assay: Inhibitory activity on kynurenine 3-hydroxylase in rat liver homogenate; type: biochemical; details: test concentration not given
T1 construct: incubating 10 μL of the homogenate with NADPH (2 mM), kynurenine (100 μM); from tissue; host or cells: rat liver (pellet of the homogenate, resuspended)
T1 sequence (O88867 whole entry): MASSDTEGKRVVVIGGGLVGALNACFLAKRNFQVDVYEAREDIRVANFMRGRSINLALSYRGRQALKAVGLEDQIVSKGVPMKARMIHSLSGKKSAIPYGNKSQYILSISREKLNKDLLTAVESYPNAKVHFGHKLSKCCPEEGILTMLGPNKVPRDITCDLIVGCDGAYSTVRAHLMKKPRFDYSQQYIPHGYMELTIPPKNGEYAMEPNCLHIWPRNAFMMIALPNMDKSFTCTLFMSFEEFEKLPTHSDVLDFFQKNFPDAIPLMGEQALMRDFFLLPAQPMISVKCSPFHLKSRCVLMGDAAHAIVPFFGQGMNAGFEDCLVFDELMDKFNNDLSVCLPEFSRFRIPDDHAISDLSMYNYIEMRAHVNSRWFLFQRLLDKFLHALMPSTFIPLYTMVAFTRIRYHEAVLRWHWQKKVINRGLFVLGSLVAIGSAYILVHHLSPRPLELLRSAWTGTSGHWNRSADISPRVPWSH
Experimental: Study of the Inhibitory Activity on Kynurenine 3-hydroxylase in Rat Liver
Rat livers are homogenised (1:8 weight/volume) in a buffer solution comprising: • 0.25 M sucrose • 50 mM pH 7.4 Tris; • 1 mM EDTA; and • 1 mM DTT.
The homogenates are centrifuged for 10 minutes at 12 000 rpm. The pellets are resuspended in the buffer solution described above (1:2 weight/volume).
The kynurenine 3-hydroxylase inhibition is determined by incubating 10 μL of the homogenate with NADPH (2 mM), kynurenine (100 μM) and various concentrations of the test compounds in a final volume of 100 μL at 37° C. for 5 minutes.
The compounds are tested at concentrations of between 1 μM and 300 μM. 3,4-Dimethoxy-N-[4-(3-nitrophenyl)thiazol-2-yl]benzenesulfonamide is a compound from the company Hoffmann-LaRoche (Basle, see J. Med. Chem., 40 (1997), 4738). 30H-Kynurenine was tested according to the protocol described by Carpendo et al. (Neuroscience, 61 (1994), 237-244).
Each of the experiments is repeated once and the IC50 values (in μmol/L) are calculated and given in the form of a mean of these two experiments.
Results concerning representative examples of family Ih are given in Table II below, in which is indicated the measurement of the percentage of remaining kynurenine 3-hydroxylase activity relative to the control (100%).

primary hepatocytes [1] = assay: Hepatic glucose production stimulated by AMPc/DEX in primary hepatocytes; type: cell-based, Wistar rats
Experimental: (§1) Study of the Effect on Glucose Production by the Liver Materials and Method:
The hepatocytes are isolated from the liver of Wistar rats fasted for 24 hours, according to the method described in Methods Cell Biol., 13 (1975), 29-83.
1) The hepatocytes are cultured for 16 to 18 hours in DMEM medium in the presence of AMP cyclase/dexamethasone at respective concentrations of 5×10^−5 M and 5×10^−7 M, with preincubation of the products at the test doses. After washing in pH 7.4 PBS buffer, the cells are incubated for three hours at 37° C. in a Krebs/AMPc/DEX buffer at the abovementioned concentrations. 0.1 μM insulin is used as reference substance. Two identical experiments are performed (Table III-1).
Quantification of the glucose is performed via a colorimetric method using glucose oxidase (IL test™ Glucose, Monarch 181633-80). The protein assay is performed on the rest of the incubation medium via the Lowry method (BIO-RAD Dc protein assay, BIO-RAD 5000116).
(§2) The results are expressed as nmoles of glucose produced per […] of proteins. The statistical test used is the t test.

primary hepatocytes [2] = assay: Hepatic glucose production, basal lactate/pyruvate 2 hours, in primary hepatocytes; type: cell-based, Wistar rats; parameters: Hepatic glucose production: unit not given here; details: for HGP % of control: Basal Lact/Pyr 2 hours; for hepatic glucose production in vitro (result in words): primary rat hepatocytes, summary of Tables III and IV
Experimental: as §1
After washing in pH 7.4 PBS buffer, the cells are incubated for two hours at 37° C. in a Krebs buffer free of glucose and of insulin, containing lactate/pyruvate (10/1 mM) in the presence or absence of the test compounds. 10 μM MICA (5-methoxyindole-2-carboxylic acid) is used as reference substance. Two identical experiments are performed (Table III-2).
The protein assay is performed on the rest of the incubation medium via the Lowry method (BIO-RAD Dc protein assay, BIO-RAD 5000116).
as §2

[3] = system: perfused isolated pancreases from N0 STZ diabetic rats; assay: Secretion of insulin and glucagon in perfused isolated pancreases from N0 STZ diabetic rats; type: cell-based; details: absence of glucose, then 16.5 mM glucose; diabetic rat pancreas
Source text: Study of the Effect on the Secretion of the Pancreatic Hormones Insulin and Glucagon, in N0STZ Diabetic Rats
The results are expressed as the mean±SEM (standard error of mean) of several experiments. The statistical test used is the Scheffé test.

| Remaining kynurenine 3-hydroxylase activity (% of control) (kynurenine 3-hydroxylase) | Molecule | other results |
| --- | --- | --- |
| 24.3% | 2-(2′-naphthylthio)-4-(4′-chlorophenyl)-4-oxobutanoic acid [Ih-30] |  |
| 23.2% | 2-(2′-naphthylthio)-4-phenyl-4-oxobutanoic acid [Ih-1] | HGP % of control (primary hepatocytes [1]; 1 μM): 103 % of control; HGP % of control (primary hepatocytes [1]; 10 μM): 83 % of control; HGP % of control (primary hepatocytes [1]; 100 μM): 15 % of control; HGP % of control (primary hepatocytes [2]; 1 μM): 10 % of control; HGP % of control (primary hepatocytes [2]; 10 μM): 127 % of control; HGP % of control (primary hepatocytes [2]; 100 μM): 95 % of control; hepatic glucose production in vitro (result in words) (primary hepatocytes [2]): powerful inhibitors of hepatic glucose production in vitro |
|  | O=C(C[C@@H](Cc1ccccc1)C(=O)O)c1ccc(Cl)c(Cl)c1 (racemic) [Compound j, (R,S)-2-benzyl-4-(3′,4′-dichlorophenyl)-4-oxobutanoic acid] | Inhibition of hepatic glucose production (primary hepatocytes [2]; 1 μM): 30** %; Inhibition of hepatic glucose production (primary hepatocytes [2]; 10 μM): 51** %; Inhibition of hepatic glucose production (primary hepatocytes [2]; 100 μM): 65** %; hepatic glucose production in vitro (result in words) (primary hepatocytes [2]): powerful inhibitors of hepatic glucose production in vitro |
|  | O=C(C[C@@H](Cc1ccccc1)C(=O)O)c1ccc(F)cc1 [Compound i, (R)-2-benzyl-4-(4-fluorophenyl)-4-oxobutanoic acid] | glucagon secretion (result in words) [3]: stimulation; insulin secretion (result in words) [3]: stimulation; Hepatic glucose production (primary hepatocytes [2]; 1 μM): 88 ± 7; Hepatic glucose production (primary hepatocytes [2]; 10 μM): 73 ± 4; Hepatic glucose production (primary hepatocytes [2]; 100 μM): 39 ± 3; hepatic glucose production in vitro (result in words) (primary hepatocytes [2]): powerful inhibitors of hepatic glucose production in vitro |
|  | COc1ccc(S(=O)(=O)Nc2nc(-c3cccc([N+](=O)[O-])c3)cs2)cc1OC [Compound k, 3,4-dimethoxy-N-[4-(3-nitrophenyl)thiazol-2-yl]benzenesulfonamide, reference compound] | glucagon secretion (result in words) [3]: stimulation; insulin secretion (result in words) [3]: stimulation |
| 50.4% | O=C(CC(Sc1ccc(F)cc1)C(=O)O)c1ccccc1 (stereo not drawn) [Ih-3, 2-(4′-fluorophenylthio)-4-phenyl-4-oxobutanoic acid] |  |
| 45.4% | Cc1ccc(SC(CC(=O)c2ccccc2)C(=O)O)cc1 (stereo not drawn) [Ih-5, 2-(4′-methylphenylthio)-4-phenyl-4-oxobutanoic acid] |  |
| 81.3% | O=C(CC(SC1CCCCC1)C(=O)O)c1ccccc1 (stereo not drawn) [Ih-7, 2-cyclohexylthio-4-phenyl-4-oxobutanoic acid] |  |
| 66.7% | CCOC(=O)C(CC(=O)c1ccccc1)Sc1ccc(F)cc1 (stereo not drawn) [Ih-10, ethyl 2-(4′-fluorophenylthio)-4-phenyl-4-oxobutanoate] |  |
| 63.3% | CCOC(=O)C(CC(=O)c1ccccc1)Sc1ccc(C)cc1 (stereo not drawn) [Ih-12, ethyl 2-(4′-methylphenylthio)-4-phenyl-4-oxobutanoate] |  |
| 55.2% | CCOC(=O)C(CC(=O)c1ccccc1)Sc1ccc(OC)cc1 (stereo not drawn) [Ih-13, ethyl 2-(4′-methoxyphenylthio)-4-phenyl-4-oxobutanoate] |  |
| 95.0% | CCOC(=O)C(CC(=O)c1ccccc1)SC1CCCCC1 (stereo not drawn) [Ih-15, ethyl 2-cyclohexylthio-4-phenyl-4-oxobutanoate] |  |
| 6.6% | COc1ccc(C(=O)CC(Sc2ccc(F)cc2)C(=O)O)cc1 (stereo not drawn) [Ih-18, 2-(4′-fluorophenylthio)-4-(4′-methoxyphenyl)-4-oxobutanoic acid] |  |
| 13.3% | COc1ccc(C(=O)CC(Sc2ccc(C)cc2)C(=O)O)cc1 (stereo not drawn) [Ih-20, 2-(4′-methylphenylthio)-4-(4′-methoxyphenyl)-4-oxobutanoic acid] |  |
| 17.4% | COc1ccc(SC(CC(=O)c2ccc(OC)cc2)C(=O)O)cc1 (stereo not drawn) [Ih-21, 2-(4′-methoxyphenylthio)-4-(4′-methoxyphenyl)-4-oxobutanoic acid] |  |
| 38.1% | COc1ccc(C(=O)CC(SC2CCCCC2)C(=O)O)cc1 (stereo not drawn) [Ih-23, 2-cyclohexylthio-4-(4′-methoxyphenyl)-4-oxobutanoic acid] |  |
| 55.5% | O=C(CC(Sc1ccc(F)cc1)C(=O)O)c1ccc(Cl)cc1 (stereo not drawn) [Ih-26, 2-(4′-fluorophenylthio)-4-(4′-chlorophenyl)-4-oxobutanoic acid] |  |
| 50.5% | Cc1ccc(SC(CC(=O)c2ccc(Cl)cc2)C(=O)O)cc1 (stereo not drawn) [Ih-28, 2-(4′-methylphenylthio)-4-(4′-chlorophenyl)-4-oxobutanoic acid] |  |
|  | O=C(O)c1cc(=O)c2ccccc2[nH]1 [Kynurenic acid] | glucagon secretion (result in words) [3]: stimulates; insulin secretion (result in words) [3]: stimulates the secretion of insulin |
|  | Nc1ccccc1C(=O)CC(N)C(=O)O (stereo not drawn) [Kynurenine] | glucagon secretion (result in words) [3]: stimulated; insulin secretion (result in words) [3]: stimulated; hepatic glucose production in vitro (result in words) (primary hepatocytes [2]): powerful inhibitors of hepatic glucose production in vitro |
|  | N[C@@H](Cc1c[nH]c2ccccc12)C(=O)O [Tryptophan, reference compound] | glucagon secretion (result in words) [3]: stimulates glucagon secretion in a glucose-dependent manner; insulin secretion (result in words) [3]: stimulates insulin secretion in a glucose-dependent manner; hepatic glucose production in vitro (result in words) (primary hepatocytes [2]): powerful inhibitors of hepatic glucose production in vitro |
| 30.0% | ethyl 2-(2′-naphthylthio)-4-phenyl-4-oxobutanoate [Ih-14] |  |

| Molecule | Remaining kynurenine 3-hydroxylase activity (% of control) (kynurenine 3-hydroxylase) | other results |
| --- | --- | --- |
| O=C(CC(Sc1ccccc1)C(=O)O)c1ccccc1 (stereo not drawn) [Ih-2, 2-phenylthio-4-phenyl-4-oxobutanoic acid] | 70.4% |  |
| O=C(CC(Sc1ccc(Cl)cc1)C(=O)O)c1ccccc1 (stereo not drawn) [Ih-4, 2-(4′-chlorophenylthio)-4-phenyl-4-oxobutanoic acid] | 34.8% |  |
| O=C(CC(SCc1ccccc1)C(=O)O)c1ccccc1 (stereo not drawn) [Ih-8, 2-benzylthio-4-phenyl-4-oxobutanoic acid] | 68.6% |  |
| CCOC(=O)C(CC(=O)c1ccccc1)Sc1ccccc1 (stereo not drawn) [Ih-9, ethyl 2-phenylthio-4-phenyl-4-oxobutanoate] | 80.8% |  |
| CCOC(=O)C(CC(=O)c1ccccc1)Sc1ccc(Cl)cc1 (stereo not drawn) [Ih-11, ethyl 2-(4′-chlorophenylthio)-4-phenyl-4-oxobutanoate] | 44.6% |  |
| CCOC(=O)C(CC(=O)c1ccccc1)SCc1ccccc1 (stereo not drawn) [Ih-16, ethyl 2-benzylthio-4-phenyl-4-oxobutanoate] | 84.4% |  |
| COc1ccc(C(=O)CC(Sc2ccccc2)C(=O)O)cc1 (stereo not drawn) [Ih-17, 2-phenylthio-4-(4′-methoxyphenyl)-4-oxobutanoic acid] | 16.0% |  |
| COc1ccc(C(=O)CC(Sc2ccc(Cl)cc2)C(=O)O)cc1 (stereo not drawn) [Ih-19, 2-(4′-chlorophenylthio)-4-(4′-methoxyphenyl)-4-oxobutanoic acid] | 4.1% |  |
| COc1ccc(C(=O)CC(SCc2ccccc2)C(=O)O)cc1 (stereo not drawn) [Ih-24, 2-benzylthio-4-(4′-methoxyphenyl)-4-oxobutanoic acid] | 18.9% |  |
| O=C(CC(Sc1ccccc1)C(=O)O)c1ccc(Cl)cc1 (stereo not drawn) [Ih-25, 2-phenylthio-4-(4′-chlorophenyl)-4-oxobutanoic acid] | 67.6% |  |
| O=C(CC(Sc1ccc(Cl)cc1)C(=O)O)c1ccc(Cl)cc1 (stereo not drawn) [Ih-27, 2-(4′-chlorophenylthio)-4-(4′-chlorophenyl)-4-oxobutanoic acid] | 34.9% |  |
